Measured values reported in ChEMBL document CHEMBL1141766, “Isoprenylated naphthoquinone dimers firmianones A, B, and C from Firmiana platanifolia” (2005).

Test system: P388
Assay: Cytotoxicity against mouse P388 cells
Assay type: functional
Settings: read-out: ED50 (the source's name)

CC1=C[C@@H]2c3c(c(O)c4ccccc4c3O[C@@H]3O[C@H](CO)[C@@H](O)[C@H](O)[C@H]3O)[C@@]3(O)c4ccccc4C(=O)[C@]2(/C=C/C(C)(C)O)[C@@]3(O)C1 [FIRMIANONE A]
EC50: 6.5 µM

CC1=C[C@@H]2c3c(c(O)c4ccccc4c3O[C@@H]3O[C@H](CO)[C@@H](O)[C@H](O)[C@H]3O)[C@@]3(O)c4cccc(O)c4C(=O)[C@]2(/C=C/C(C)(C)O)[C@@]3(O)C1 [FIRMIANONE B]
EC50: 8.1 µM
